Experiments:
[1] = molecular target: 5-hydroxytryptamine receptor 1A (Homo sapiens, UniProt P08908)
[2] = molecular target: 5-hydroxytryptamine receptor 6 (Homo sapiens, UniProt P50406)
[3] = molecular target: 5-hydroxytryptamine receptor 2A (Rattus norvegicus, UniProt P14842)
[4] = molecular target: Sodium-dependent dopamine transporter (Homo sapiens, UniProt Q01959)
[5] = molecular target: Sodium-dependent noradrenaline transporter (Homo sapiens, UniProt P23975)
[6] = molecular target: Muscarinic acetylcholine receptor M3 (Homo sapiens, UniProt P20309)
[7] = molecular target: 5-hydroxytryptamine receptor 1B (Rattus norvegicus, UniProt P28564)
[8] = molecular target: D(3) dopamine receptor (Rattus norvegicus, UniProt P19020)
[9] = molecular target: D(1A) dopamine receptor (Homo sapiens, UniProt P21728)
[10] = molecular target: 5-hydroxytryptamine receptor 5A (Homo sapiens, UniProt P47898)
[11] = molecular target: 5-hydroxytryptamine receptor 2C (Rattus norvegicus, UniProt P08909)
[12] = molecular target: Alpha-2C adrenergic receptor (Homo sapiens, UniProt P18825)
[13] = molecular target: Muscarinic acetylcholine receptor M2 (Homo sapiens, UniProt P08172)
[14] = molecular target: Muscarinic acetylcholine receptor M1 (Homo sapiens, UniProt P11229)
[15] = molecular target: Muscarinic acetylcholine receptor M4 (Homo sapiens, UniProt P08173)
[16] = molecular target: Muscarinic acetylcholine receptor M5 (Homo sapiens, UniProt P08912)
[17] = molecular target: Alpha-2A adrenergic receptor (Homo sapiens, UniProt P08913)
[18] = molecular target: Sodium-dependent serotonin transporter (Homo sapiens, UniProt P31645)
[19] = molecular target: Histamine H1 receptor (Homo sapiens, UniProt P35367)
[20] = molecular target: 5-hydroxytryptamine receptor 2B (Homo sapiens, UniProt P41595)
[21] = molecular target: D(4) dopamine receptor (Homo sapiens, UniProt P21917)
[22] = molecular target: Alpha-1A adrenergic receptor (Homo sapiens, UniProt P35348)
[23] = molecular target: D(1B) dopamine receptor (Homo sapiens, UniProt P21918)
[24] = molecular target: Alpha-1B adrenergic receptor (Homo sapiens, UniProt P35368)

Sequence of Alpha-2A adrenergic receptor (P08913 whole entry): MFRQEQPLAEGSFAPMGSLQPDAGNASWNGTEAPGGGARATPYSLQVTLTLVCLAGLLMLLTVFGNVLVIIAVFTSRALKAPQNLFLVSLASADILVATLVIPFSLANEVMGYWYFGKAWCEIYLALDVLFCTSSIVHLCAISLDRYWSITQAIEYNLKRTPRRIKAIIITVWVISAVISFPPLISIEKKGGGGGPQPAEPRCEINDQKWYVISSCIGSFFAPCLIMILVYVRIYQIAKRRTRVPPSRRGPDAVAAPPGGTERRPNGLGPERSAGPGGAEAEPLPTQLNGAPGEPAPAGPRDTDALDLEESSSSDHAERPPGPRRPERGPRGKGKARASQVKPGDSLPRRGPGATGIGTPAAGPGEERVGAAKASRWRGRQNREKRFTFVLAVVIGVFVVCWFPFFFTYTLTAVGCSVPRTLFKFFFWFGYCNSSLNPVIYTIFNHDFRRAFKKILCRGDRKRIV
Sequence of 5-hydroxytryptamine receptor 1A (P08908 whole entry): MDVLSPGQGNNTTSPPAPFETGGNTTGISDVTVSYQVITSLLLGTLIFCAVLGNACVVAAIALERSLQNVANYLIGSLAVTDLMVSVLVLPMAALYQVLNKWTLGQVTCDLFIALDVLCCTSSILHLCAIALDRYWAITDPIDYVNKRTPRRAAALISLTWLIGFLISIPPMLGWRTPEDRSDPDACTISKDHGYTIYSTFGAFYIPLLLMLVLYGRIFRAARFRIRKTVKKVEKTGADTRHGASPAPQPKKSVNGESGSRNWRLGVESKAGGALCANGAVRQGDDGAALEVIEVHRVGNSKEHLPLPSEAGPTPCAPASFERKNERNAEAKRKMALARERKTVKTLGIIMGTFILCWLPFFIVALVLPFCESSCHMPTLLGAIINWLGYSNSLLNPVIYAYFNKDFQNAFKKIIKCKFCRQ
Sequence of Sodium-dependent dopamine transporter (Q01959 whole entry): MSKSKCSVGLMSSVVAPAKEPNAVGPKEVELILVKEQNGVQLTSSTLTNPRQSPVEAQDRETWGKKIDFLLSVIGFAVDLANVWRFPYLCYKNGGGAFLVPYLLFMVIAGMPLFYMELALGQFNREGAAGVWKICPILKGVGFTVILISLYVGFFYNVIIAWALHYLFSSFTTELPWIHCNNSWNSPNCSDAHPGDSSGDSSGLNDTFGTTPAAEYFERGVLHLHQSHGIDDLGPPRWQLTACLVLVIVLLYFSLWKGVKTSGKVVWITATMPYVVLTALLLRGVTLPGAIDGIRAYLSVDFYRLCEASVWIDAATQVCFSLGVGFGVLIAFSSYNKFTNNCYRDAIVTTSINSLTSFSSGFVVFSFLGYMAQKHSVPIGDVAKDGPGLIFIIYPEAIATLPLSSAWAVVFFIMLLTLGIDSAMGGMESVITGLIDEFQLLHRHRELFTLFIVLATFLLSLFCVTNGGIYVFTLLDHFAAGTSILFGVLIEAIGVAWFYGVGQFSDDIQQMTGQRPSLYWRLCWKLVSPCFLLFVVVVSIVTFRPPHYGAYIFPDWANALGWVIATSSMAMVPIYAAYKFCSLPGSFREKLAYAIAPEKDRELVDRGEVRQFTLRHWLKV
Sequence of 5-hydroxytryptamine receptor 6 (P50406 whole entry): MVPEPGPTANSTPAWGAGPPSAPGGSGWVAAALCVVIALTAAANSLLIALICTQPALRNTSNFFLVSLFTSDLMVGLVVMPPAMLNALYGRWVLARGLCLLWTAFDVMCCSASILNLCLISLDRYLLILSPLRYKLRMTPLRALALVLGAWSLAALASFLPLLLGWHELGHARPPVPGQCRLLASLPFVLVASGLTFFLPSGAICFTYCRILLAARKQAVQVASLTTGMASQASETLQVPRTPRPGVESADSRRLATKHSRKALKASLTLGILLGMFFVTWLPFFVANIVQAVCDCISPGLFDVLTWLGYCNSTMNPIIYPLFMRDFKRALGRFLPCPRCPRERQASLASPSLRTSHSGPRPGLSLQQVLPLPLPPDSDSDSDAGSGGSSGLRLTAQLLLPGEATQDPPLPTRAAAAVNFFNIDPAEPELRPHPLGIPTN
Sequence of 5-hydroxytryptamine receptor 1B (P28564 whole entry): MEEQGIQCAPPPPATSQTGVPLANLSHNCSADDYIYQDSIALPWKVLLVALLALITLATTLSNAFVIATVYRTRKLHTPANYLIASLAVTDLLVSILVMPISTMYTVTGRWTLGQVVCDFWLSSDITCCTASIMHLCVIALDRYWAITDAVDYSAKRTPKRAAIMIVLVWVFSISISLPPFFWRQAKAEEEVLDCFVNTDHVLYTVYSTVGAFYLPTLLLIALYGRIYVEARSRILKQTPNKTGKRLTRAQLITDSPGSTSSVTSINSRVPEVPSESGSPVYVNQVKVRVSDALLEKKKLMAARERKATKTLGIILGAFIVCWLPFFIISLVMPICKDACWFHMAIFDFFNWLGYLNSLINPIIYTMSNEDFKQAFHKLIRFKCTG
Sequence of Alpha-2C adrenergic receptor (P18825 whole entry): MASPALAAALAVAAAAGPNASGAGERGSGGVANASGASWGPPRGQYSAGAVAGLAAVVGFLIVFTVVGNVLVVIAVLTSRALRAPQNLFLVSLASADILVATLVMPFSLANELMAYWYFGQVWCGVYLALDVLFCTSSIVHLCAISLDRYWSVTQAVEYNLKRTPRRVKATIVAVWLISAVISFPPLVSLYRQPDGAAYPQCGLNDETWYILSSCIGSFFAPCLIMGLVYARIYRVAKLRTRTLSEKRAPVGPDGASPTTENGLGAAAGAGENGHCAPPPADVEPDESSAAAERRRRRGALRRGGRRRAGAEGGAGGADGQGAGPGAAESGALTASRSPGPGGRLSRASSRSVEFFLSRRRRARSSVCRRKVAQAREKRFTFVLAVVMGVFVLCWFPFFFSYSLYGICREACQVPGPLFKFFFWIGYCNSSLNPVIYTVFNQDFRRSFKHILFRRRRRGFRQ
Sequence of Sodium-dependent noradrenaline transporter (P23975 whole entry): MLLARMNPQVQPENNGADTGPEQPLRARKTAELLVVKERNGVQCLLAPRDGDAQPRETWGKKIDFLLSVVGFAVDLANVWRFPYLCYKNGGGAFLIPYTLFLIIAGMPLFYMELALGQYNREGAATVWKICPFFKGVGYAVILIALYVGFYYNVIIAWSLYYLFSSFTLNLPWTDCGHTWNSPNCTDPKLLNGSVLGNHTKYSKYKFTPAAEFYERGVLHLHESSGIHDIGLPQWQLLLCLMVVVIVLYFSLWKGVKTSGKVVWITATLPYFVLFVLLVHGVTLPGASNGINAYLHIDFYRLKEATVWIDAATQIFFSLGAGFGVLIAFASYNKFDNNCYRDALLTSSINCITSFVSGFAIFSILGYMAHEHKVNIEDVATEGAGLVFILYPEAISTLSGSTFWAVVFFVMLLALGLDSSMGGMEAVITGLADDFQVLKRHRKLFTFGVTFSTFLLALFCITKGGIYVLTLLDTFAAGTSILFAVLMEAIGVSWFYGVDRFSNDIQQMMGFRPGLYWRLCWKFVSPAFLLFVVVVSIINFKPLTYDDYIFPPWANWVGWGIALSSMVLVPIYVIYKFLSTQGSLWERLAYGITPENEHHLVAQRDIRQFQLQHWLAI
Sequence of 5-hydroxytryptamine receptor 2A (P14842 whole entry): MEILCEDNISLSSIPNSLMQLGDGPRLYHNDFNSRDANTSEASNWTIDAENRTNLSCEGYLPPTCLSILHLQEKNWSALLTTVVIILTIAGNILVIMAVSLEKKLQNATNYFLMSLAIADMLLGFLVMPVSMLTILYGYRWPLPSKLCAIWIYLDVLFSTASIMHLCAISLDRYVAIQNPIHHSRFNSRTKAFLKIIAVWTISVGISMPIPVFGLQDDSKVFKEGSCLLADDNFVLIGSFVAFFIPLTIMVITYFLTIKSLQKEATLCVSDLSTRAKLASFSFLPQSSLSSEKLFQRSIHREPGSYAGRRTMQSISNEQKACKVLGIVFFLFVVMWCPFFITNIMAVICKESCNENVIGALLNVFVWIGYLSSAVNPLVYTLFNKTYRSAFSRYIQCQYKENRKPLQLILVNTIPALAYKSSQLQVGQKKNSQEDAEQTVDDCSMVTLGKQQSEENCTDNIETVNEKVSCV
Sequence of D(1A) dopamine receptor (P21728 whole entry): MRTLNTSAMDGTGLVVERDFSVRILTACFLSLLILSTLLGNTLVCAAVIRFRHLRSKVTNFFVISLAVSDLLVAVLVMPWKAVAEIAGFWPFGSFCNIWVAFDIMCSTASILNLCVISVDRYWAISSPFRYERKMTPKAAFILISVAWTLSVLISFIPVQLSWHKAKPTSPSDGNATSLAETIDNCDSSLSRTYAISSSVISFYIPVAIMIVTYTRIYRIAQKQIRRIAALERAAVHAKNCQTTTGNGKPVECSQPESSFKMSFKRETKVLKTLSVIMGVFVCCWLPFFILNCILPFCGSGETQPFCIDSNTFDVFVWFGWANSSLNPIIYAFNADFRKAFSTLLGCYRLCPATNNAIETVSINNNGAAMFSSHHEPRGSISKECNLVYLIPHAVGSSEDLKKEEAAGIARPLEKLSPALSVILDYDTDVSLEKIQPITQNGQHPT
Sequence of 5-hydroxytryptamine receptor 2C (P08909 whole entry): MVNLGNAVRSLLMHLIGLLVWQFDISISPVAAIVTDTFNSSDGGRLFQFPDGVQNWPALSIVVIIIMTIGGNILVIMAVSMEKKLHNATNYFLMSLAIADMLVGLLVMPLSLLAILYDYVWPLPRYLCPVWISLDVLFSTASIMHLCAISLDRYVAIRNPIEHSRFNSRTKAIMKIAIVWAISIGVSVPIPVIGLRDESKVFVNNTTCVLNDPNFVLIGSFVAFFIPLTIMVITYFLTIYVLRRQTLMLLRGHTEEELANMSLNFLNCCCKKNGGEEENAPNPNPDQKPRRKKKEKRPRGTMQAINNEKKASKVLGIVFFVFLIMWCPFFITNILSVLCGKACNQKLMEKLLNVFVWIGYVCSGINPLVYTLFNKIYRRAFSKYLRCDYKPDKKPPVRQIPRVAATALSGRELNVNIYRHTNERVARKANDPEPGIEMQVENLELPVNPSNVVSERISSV

Row | SMILES | Ki [1] [nM] | Ki [2] [µM] | Ki [3] [nM] | Ki [4] [µM] | Ki [5] [nM] | Ki [7] [nM] | Ki [9] [nM] | Ki [11] [nM] | Ki [12] [nM] | Ki [17] [nM] | other results
1 | CN(C)CCON=C(C=Cc1ccc(O)cc1)c1ccccc1F [NSC_6438382] | 2500 | 3.87 | 0.951 | 5.62 | 739 | 914 | > 10000 | 8.24 | 2120 | 726 | Ki [6]: 2390 nM; Ki [8]: > 10 µM; Ki [10]: 1750 nM; Ki [13]: > 10 µM; Ki [14]: 733 nM; Ki [15]: 3.67 µM; Ki [16]: 3.01 µM
2 | OC(c1ccccc1)C1CCN(CCc2ccccc2)CC1 (centres undefined) [MDL-11939] | 3420 | 2.75 | 2.89 | > 10 | > 10000 | 70.5 | 327 | 854 | 1190 | 1590 | Ki [18]: 2600 nM; Ki [19]: 1600 nM; Ki [20]: 1420 nM; Ki [21]: 3.93 µM; Ki [22]: 1880 nM; Ki [23]: 2870 nM; Ki [24]: 1580 nM

Source: BindingDB's records for doi:10.1038/sj.npp.1300819 (Case Western Reserve University, 2006)
